Measured values: US20040072767A1, “Glucopyranose derivatives and medicaments for preventing and/or treating HIV infection diseases comprising the same as an active ingredient” (ONO PHARMACEUTICAL CO., LTD., priority 1998, published 2004)

molecular target: T1, CXCR4 (Homo sapiens, UniProt P61073); assay: Inhibition experiment against induction activity of SDF-1 on transitory increase of Ca ion; assay type: cell-based; conditions: CCRF-HSB-2; test compound 10 μM; SDF-1β 30 nM added 3 minutes after compound; CCRF-HSB2 human T cells loaded with Fura-2AM; read-out: Inhibition rate (%)
T1 construct: host or cells: CCRF-HSB2 human T cells
Description: As described above, for screening a compound inhibiting the binding of HIV to CXCR4 which is a receptor on T cell, it is a more direct procedure to carry out the screening in an assay system using HIV virus. However, use of HIV virus on a large scale screening is not practical owing to its difficulty of handling. On the other hand, since HIV and SDF-1 are both bound to CXCR4, it is expectable that there are some common characteristics between the CXCR4 binding sites of both HIV and SDF-1 sides and the SDF-1 and HIV binding sites of CXCR4 side. Therefore, in order to find out a compound inhibiting the adsorption of HIV virus to a cell, i.e., having an activity mechanism different from the existing anti-AIDS medicaments (inhibitors of reverse transcription and inhibitors of proteases), it is possible to utilize an assay system using SDF-1 which is an original ligand for CXCR4, instead of HIV. More particularly, as an example of the screening system of a compound inhibiting the binding of SDF-1 to CXCR4, a system of measuring an effect on transitory increase of Ca ion induced by SDF-1 through CXCR4 is practicable since CXCR4 is a G protein-conjugated seven-times transmembrane-type receptor.
A human T cell expressing CXCR4, for example cells of CCRF-HSB2 (ATCC No. CCL-120.1) were suspended into RPMI-1640 medium, fetal bovine serum (FBS) (10%), Fura-2AM (5 μM) (Dojin Kagaku, cat# 343-05401), Probenecid (2.5 mM), and a HEPES buffer (20 mM, pH 7.4) so as to be 5×10^6 cell/ml, and the suspension was heated at 37° C. for 30 minutes under a light-shielded condition. Then, a 4 to 8 fold-diluted Hanks solution (1× Hanks), HEPES (20 mM, pH 7.4) and Probenecid (2.5 mM) were added thereto, and the whole was heated for another 30 minutes. After the cells were washed with a solution of 1× Hanks, HEPES (20 mM, pH 7.4) and Probenecid (2.5 mM), they were re-suspended into the solution so as to be 2×10^6 cell/ml. For the T cell on which Fura-2AM had been loaded, the transitory increase of Ca induced by the addition of recombinant SDF-1β dissolved in PBS(−) was detected by use of a suitable Ca detector. In the inhibition experiment, the inhibitory effect of a test compound (10 μM) on the transitory increase of Ca induced by the addition of recombinant SDF-1β were measured by adding SDF-1β at an amount so as to be final concentration of, for example, 30 nM at 3 minutes after the addition of the test compound. An inhibition rate (%) was calculated according to the following equation.
Inhibition rate=(Ec−Ea)/Ec×100
In the equation, each symbol means as follows: […]
Ec: measured value of the transitory increase of Ca induced by SDF-1β
Ea: measured value of the transitory increase of Ca induced by SDF-1β when a test compound was added.

T1 sequence (P61073 whole entry): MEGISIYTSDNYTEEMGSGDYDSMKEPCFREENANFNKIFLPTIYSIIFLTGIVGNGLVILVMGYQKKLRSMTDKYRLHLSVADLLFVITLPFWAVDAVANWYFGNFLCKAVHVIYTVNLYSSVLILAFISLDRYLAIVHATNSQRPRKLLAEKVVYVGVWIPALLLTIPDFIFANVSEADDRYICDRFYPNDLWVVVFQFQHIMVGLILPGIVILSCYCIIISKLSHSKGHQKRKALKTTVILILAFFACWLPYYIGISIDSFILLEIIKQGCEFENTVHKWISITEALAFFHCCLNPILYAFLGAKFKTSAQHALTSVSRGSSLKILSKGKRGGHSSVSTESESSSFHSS

inhibition at 10 µM | SMILES
99% | CCCCCCCCCCCC(=O)O[C@H](CCCCCCCCCCC)CC(=O)N[C@H]1C(O)O[C@H](CO)[C@@H](OS(=O)(=O)O)[C@@H]1OC(=O)CCCCCCCCCCC (stereo partly drawn) [Example 2 (5), 2-deoxy-2-[3R-(dodecanoyloxy)tetradecanoyl]amino-3-O-dodecanoyl-4-O-sulfo-D-glucopyranose]
79% | CCCCCCCCCCC[C@H](CC(=O)N[C@H]1C(O)O[C@H](CO)[C@@H](OS(=O)(=O)O)[C@@H]1OC(=O)CCCCC)OC(=O)CCCCC (stereo partly drawn) [Example 2 (3), 2-deoxy-2-[3R-(hexanoyloxy)tetradecanoyl]amino-3-O-hexanoyl-4-O-sulfo-D-glucopyranose]
94% | CCCCCCCCCCC[C@H](CC(=O)N[C@H]1C(O)O[C@H](CO)[C@@H](OS(=O)(=O)O)[C@@H]1OC(=O)CCCCCCCCC)OC(=O)CCCCCCCCC (stereo partly drawn) [Example 2 (4), 2-deoxy-2-[3R-(decanoyloxy)tetradecanoyl]amino-3-O-decanoyl-4-O-sulfo-D-glucopyranose]

same assay, conditions: test compound 10 μM; SDF-1β 30 nM added 3 minutes after compound; CCRF-HSB2 human T cells loaded with Fura-2AM

Inhibition rate (%) | SMILES
93% | CCCCCCCCCCC[C@@H](CC(=O)N[C@H]1C(O)O[C@H](CO)[C@@H](OS(=O)(=O)[O-])[C@@H]1OC(=O)CCc1ccccc1)OC(=O)CCCCCCCCc1ccccc1.[Na+] (stereo partly drawn) [Compound (15), 2-Deoxy-2-[3S-[9-phenylnonanoyloxy]tetradecanoyl]amino-3-O-[3-phenylpropanoyl]-4-O-sulfo-D-glucopyranose sodium salt]
96% | CCCCCCCCCCC[C@@H](CC(=O)N[C@H]1C(O)O[C@H](CO)[C@@H](OS(=O)(=O)O)[C@@H]1OC(=O)CCCCCCCCc1ccc(Cl)cc1)OC(=O)CCCCCCCCc1ccc(Cl)cc1 (stereo partly drawn) [Compound (4)]
92% | CCCCCCCCC[C@@H](CC(=O)N[C@H]1C(O)O[C@H](CO)[C@@H](OS(=O)(=O)[O-])[C@@H]1OC(=O)CCCCCCCCc1ccccc1)OC(=O)CCCCCCCCc1ccccc1.[Na+] (stereo partly drawn) [Compound (16), 2-Deoxy-2-[3S-[9-phenylnonanoyloxy]dodecanoyl]amino-3-O-[9-phenylnonanoyl]4-O-sulfo-D-glucopyranose sodium salt]
96% | O=C(C[C@H](CCCCCCc1ccccc1)OC(=O)CCCCCCCCc1ccccc1)N[C@H]1C(O)O[C@H](CO)[C@@H](OS(=O)(=O)O)[C@@H]1OC(=O)CCCCCCCCc1ccccc1 (stereo partly drawn) [Compound (2), 2-deoxy-2-[3S-(9-phenylnonanoyloxy)-9-phenylnonanoyl]amino-3-O-(9-phenylnonanoyl)-4-O-sulfo-D-glucopyranose]
95% | CCCCCCCCCCC[C@@H](CC(=O)N[C@H]1C(O)O[C@H](CO)[C@@H](OS(=O)(=O)O)[C@@H]1OC(=O)CCCCCCCOc1cc(Cl)cc(Cl)c1)OC(=O)CCCCCCCOc1cc(Cl)cc(Cl)c1 (stereo partly drawn) [Compound (7), 2-deoxy-2-[3S-[8-(3,5-dichlorophenoxy)octanoyloxy]tetradecanoyl]amino-3-O-[8-(3,5-dichlorophenoxy)octanoyl]-4-O-sulfo-D-glucopyranose]
97% | CCCCCCCCCCC[C@@H](CC(=O)N[C@H]1C(O)O[C@H](CO)[C@@H](OS(=O)(=O)O)[C@@H]1OC(=O)CCCCc1ccc(CCCCC)cc1)OC(=O)CCCCc1ccc(CCCCC)cc1 (stereo partly drawn) [Compound (5), 2-deoxy-2-[3S-[5-(4-pentylphenyl)pentanoyloxy]tetradecanoyl]amino-3-O-[5-(4-pentylphenyl)pentanoyl]4-O-sulfo-D-glucopyranose]
86% | CCCCCCCCCCCC(CC(=O)NC1CCCC(OS(=O)(=O)O)C1OC(=O)CCCCCCCCc1ccccc1)OC(=O)CCCCCCCCc1ccccc1 (stereo not drawn) [Compound (13), 3(syn)-[3RS-(9-phenylnonanoyloxy)tetradecanoyl]amino-2RS (anti)-(9-phenylnonanoyloxy)cyclohexa-1RS-yl-O-sulfonic acid]
94% | CCCCCCCCCCCC(CC(=O)N[C@H]1COC[C@@H](OS(=O)(=O)O)[C@@H]1OC(=O)CCCCCCCCc1ccccc1)OC(=O)CCCCCCCCc1ccccc1 (stereo partly drawn) [Compound (8), 2-deoxy-2-[3RS-(9-phenylnonanoyloxy)tetradecanoyl]amino-3-O-(9-phenylnonanoyl)-4-O-sulfo-1,5-anhydro-D-xylitol]
97% | O=C(CCCCCCCCc1ccc2ccccc2c1)N[C@H]1C(O)O[C@H](CO)[C@@H](OS(=O)(=O)O)[C@@H]1OC(=O)CCCCCCCCc1ccc2ccccc2c1 (stereo partly drawn) [Compound (6), 2-deoxy-2-[9-(2-naphthyl)nonanoyl]amino-3-O-[9-(2-naphthyl)nonanoyl]-40-sulfo-D-glucopyranose]

Further lines, the compound ahead of its results:

SMILES | Inhibition rate (%)
CCCCCCCCCCC[C@@H](CC(=O)N[C@H]1C(O)O[C@H](CO)[C@@H](OS(=O)(=O)[O-])[C@@H]1OC(=O)CCCCCCCCc1ccccc1)OC(=O)CCc1ccccc1.[Na+] (stereo partly drawn) [Compound (14), 2-Deoxy-2-[3S-[3-phenylpropanoyloxy]tetradecanoyl]amino-3-O-[9-phenylnonanoyl]4-O-sulfo-D-glucopyranose sodium salt] | 96%
CCCCCCCCCCCCCC(=O)O[C@@H]1[C@@H](NC(=O)c2ccc(OCCCCCCCCCC)c(OCCCCCCCCCC)c2)[C@@H](OC)O[C@H](CO)[C@H]1OS(=O)(=O)O [Compound (10), methyl 2-deoxy-2-(3,4-didecyloxybenzoyl) amino-3-O-tetradecanoyl-4-O-sulfo-α-D-glucopyranoside] | 91%
CCCCCCCCCCCCC[C@@H](CC(=O)N[C@H]1C(O)O[C@H](CO)[C@@H](OS(=O)(=O)[O-])[C@@H]1OC(=O)CCCCCCCCc1ccccc1)OC(=O)CCCCCCCCc1ccccc1.[Na+] (stereo partly drawn) [Compound (17), 2-Deoxy-2-[3S-[9-phenylnonanoyloxy]hexadecanoyl]amino-3-O-[9-phenylnonanoyl]4-O-sulfo-D-glucopyranose sodium salt] | 93%
CCCCCCCCCCCCCC(=O)O[C@H]1[C@H](OS(=O)(=O)O)[C@@H](CO)OC(O)[C@@H]1NC(=O)c1ccc(OCCCCCCCCCC)c(OCCCCCCCCCC)c1 (stereo partly drawn) [Compound (9)] | 93%
CCCCCCCCCCC[C@@H](CC(=O)N[C@H]1C(O)O[C@H](CO)[C@@H](OS(=O)(=O)O)[C@@H]1OC(=O)CCCCCCCc1ccc(OC)cc1)OC(=O)CCCCCCCc1ccc(OC)cc1 (stereo partly drawn) [Compound (3)] | 97%
CCCCCCCCCCC[C@H](CC(=O)N[C@H]1C(O)O[C@H](CO)[C@@H](OS(=O)(=O)[O-])[C@@H]1OC(=O)CCCCCCCCc1ccccc1)OC(=O)CCCCCCCCc1ccccc1.[Na+] (stereo partly drawn) [Compound (18), 2-Deoxy-2-R[3-[9-phenylnonanoyloxy]tetradecanoyl]amino-3-O-[9-phenylnonanoyl]4-O-sulfo-D-glucopyranose sodium salt] | 91%
CCCCCCCCCCCCCC(=O)O[C@@H](CCCCCCCCCCC)CC(=O)N[C@H]1C(O)O[C@H](C)[C@@H](OS(=O)(=O)O)[C@@H]1OC(=O)CCCCCCCCCCCCC (stereo partly drawn) [Example 4, 2,6-deoxy-2-[3S-(tetradecanoyloxy)tetradecanoyl]amino-3-O-tetradecanoyl-4-O-sulfo-D-glucopyranose] | 92%
CCCCCCCCCCC[C@@H](CC(=O)N[C@H]1C(O)O[C@H](CO)[C@@H](OS(=O)(=O)[O-])[C@@H]1OC(=O)CCCCCCCCc1ccccc1)OC(=O)CCCCCCCCc1ccccc1.[Na+] (stereo partly drawn) [Compound (1), 2-Deoxy-2-[3S-(9-phenylnonanoyloxy)tetradecanoyl]amino-3-O-(9-phenylnonanoyl)-4-O-sulfo-D-glucopyranose sodium salt] | 93%
CCCCCCCCCCC[C@@H](CC(=O)N[C@H]1CO[C@H](C)[C@@H](OS(=O)(=O)O)[C@@H]1OC(=O)CCCCCCCCc1ccccc1)OC(=O)CCCCCCCCc1ccccc1 [Compound (12), 2,6-deoxy-2-[3S-(9-phenylnonanoyloxy)tetradecanoyl]amino-3-O-(9-phenylnonanoyl)-4-O-sulfo-1,5-anhydro-D-glucitol] | 94%
